Results reported in patent US20250074943A1, “DLL3 BINDING PEPTIDES AND USES THEREOF” (AMGEN INC., priority 2021, published 2025).
Numbered stars: 1 amine (or outer) side, 2 acyl side, 3 side chain; on linkers, the order of the positions; unused ones are H or OH. Bridge positions count the residues as written; N and C are the ends. Square brackets hold non-standard residues; d marks the D form. Ends that are not written are not given here. Peptide text beside a SMILES is read from it. * marks the point of attachment. X6 = CCOCCOCCOCCOCc1cn(CCCC[C@@H]2CC(=O)C(CC(=O)NCCCOCCOCCOCCCN*)NC2=O)nn1; X11 = NCCCC[C@H](NC(=O)CCC(=O)NCCCOCCOCCOCCCN*)C(N)=O; X4 = CC(C(=O)CN[*:1])[C@@H](C(=O)[*:2])[C@H](C)O; X5 = O=C([C@@H](CC1=CCc2ccccc21)N[*:1])[*:2]; Isobutyryl = CC(C)C(=O)*

How the values were obtained:
[1] = biological target: T1, recombinant DLL3 ectodomain (rhDLL3-Fc) (Homo sapiens, UniProt Q9NYJ7); assay: Binding kinetic assay using Bio-layer interferometry (BLI)
T1 construct: The recombinant DLL3 ectodomain (rhDLL3-Fc) was biotinylated; Fc
T1 sequence (Q9NYJ7 27-492 limits assumed): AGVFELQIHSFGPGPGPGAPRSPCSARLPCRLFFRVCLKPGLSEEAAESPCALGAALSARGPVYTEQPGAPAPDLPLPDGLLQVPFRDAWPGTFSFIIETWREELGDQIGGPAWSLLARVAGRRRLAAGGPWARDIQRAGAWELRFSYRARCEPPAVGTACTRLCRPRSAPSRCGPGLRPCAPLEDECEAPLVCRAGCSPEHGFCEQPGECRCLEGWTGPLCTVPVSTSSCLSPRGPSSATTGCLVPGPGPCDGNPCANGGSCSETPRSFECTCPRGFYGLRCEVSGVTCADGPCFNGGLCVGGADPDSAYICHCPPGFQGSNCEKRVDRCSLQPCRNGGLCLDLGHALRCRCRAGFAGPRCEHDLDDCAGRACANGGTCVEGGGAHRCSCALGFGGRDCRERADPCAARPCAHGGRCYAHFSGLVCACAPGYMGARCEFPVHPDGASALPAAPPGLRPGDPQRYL

[2] = biological target: T2, native huDLL3 on the surface of cells (CHO cells) (Homo sapiens, UniProt Q9NYJ7); assay: Flow cytometry competition with AF647-labelled peptide; assay type: cell-based; details: for efficiency in competing the binding of the AF647-labelled PepSP1146: compared with monomer PepSP1146
T2 construct: expressed in transfected cells; host or cells: CHO (CHO-huDLL3)
T2 sequence (Q9NYJ7 27-618): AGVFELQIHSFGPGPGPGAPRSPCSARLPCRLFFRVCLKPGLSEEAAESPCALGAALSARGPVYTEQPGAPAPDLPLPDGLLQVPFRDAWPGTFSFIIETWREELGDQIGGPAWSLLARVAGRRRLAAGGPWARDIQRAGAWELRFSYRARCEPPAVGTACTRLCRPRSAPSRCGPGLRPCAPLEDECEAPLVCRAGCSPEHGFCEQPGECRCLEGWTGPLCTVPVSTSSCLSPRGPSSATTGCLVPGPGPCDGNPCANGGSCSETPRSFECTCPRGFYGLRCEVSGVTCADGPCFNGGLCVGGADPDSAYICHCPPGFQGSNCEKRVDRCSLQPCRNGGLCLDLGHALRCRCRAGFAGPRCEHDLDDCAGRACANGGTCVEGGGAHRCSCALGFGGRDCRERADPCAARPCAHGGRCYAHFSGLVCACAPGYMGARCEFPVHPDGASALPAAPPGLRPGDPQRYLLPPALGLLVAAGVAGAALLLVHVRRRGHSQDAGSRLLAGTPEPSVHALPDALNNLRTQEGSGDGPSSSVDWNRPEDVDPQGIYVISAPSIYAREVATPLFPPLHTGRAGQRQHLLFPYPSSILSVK
Description: HEK293-huDLL3, CHO-huDLL3 and the corresponding parental cell lines were detached with EDTA 2.5 mM and re-suspended at 1.8×10^6 cells/ml in FACS buffer (1×PBS, 2% FBS), distributed at 500 μl per testing tube and pelleted 5 min at 1300 rpm in a Heraeus Multifuge […] centrifuge.

[3] = biological target: T3, rhDLL3-Fc (Homo sapiens, UniProt Q9NYJ7); assay: SPR binding / off-rate screening (Biacore T200); details: Table 7, curve fitting of SPR sensorgrams; for koff: read-out: koff; for kon: read-out: kon
T3 construct: The recombinant DLL3 ectodomain (rhDLL3-Fc) was biotinylated; Fc
T3 sequence (Q9NYJ7 27-492 limits assumed): T1 sequence (Q9NYJ7 27-492 limits assumed)
Description: […] The recombinant DLL3 ectodomain (rhDLL3-Fc) was biotinylated using EZ-Link Sulfo-NHS-LC-LC-Biotin Kit according to the manufacturer's protocol (Pierce by Thermo Fisher Scientific). The recombinant protein was incubated with an excess of NHS-LC-LC Biotin ester, in a molar ratio of 1:3 (protein: biotin), at 25° C. for 90 min. The un-reacted biotin ester was removed by subsequent buffer exchange on 0.5 ml Zeba spin desalting columns 7K MWCO (Pierce by Thermo Fisher Scientific).
The off-rate screening of the peptides was done using a Biacore T200 instrument (Cytiva, Sweden). […] Sensorgrams were analyzed by Biacore T200 Evaluation Software 3.0 (Cytiva, Sweden): specific binding was obtained by subtracting unspecific binding to naked biosensors and a zero analyte concentration made of binding assay buffer (double referencing). […]

[4] = biological target: T4, DLL3 (Homo sapiens, UniProt Q9NYJ7); assay: Binding of peptides with linkers and/or fluorescent agent to DLL3 (BLI, SPR; Table 6)
T4 construct: The recombinant DLL3 ectodomain (rhDLL3-Fc) was biotinylated; Fc
T4 sequence (Q9NYJ7 27-492 limits assumed): T1 sequence (Q9NYJ7 27-492 limits assumed)
Description: Binding kinetic assays were performed using Bio-layer interferometry (BLI) technology. The recombinant DLL3 ectodomain (rhDLL3-Fc) was biotinylated using EZ-Link Sulfo-NHS-LC-LC-Biotin Kit according to the manufacturer's protocol (Pierce by Thermo Fisher Scientific). The recombinant protein was incubated with an excess of NHS-LC-LC Biotin ester, in a molar ratio of 1:3 (protein: biotin), at 25° C. for 90 min. The un-reacted biotin ester was removed by subsequent buffer exchange on 0.5 ml Zeba spin desalting columns 7K MWCO (Pierce by Thermo Fisher Scientific).
The off-rate screening of the peptides was done using a Biacore T200 instrument (Cytiva, Sweden). […] Peptides were diluted at 300 nM in PBS-P+1× buffer (Cytiva, Sweden) supplemented with 1% DMSO and 0.1% BSA, then injected over the ligand for five minutes at 30 μl/min, finally dissociation allowed for 1 h. Sensorgrams were analyzed by Biacore T200 Evaluation Software 3.0 (Cytiva, Sweden): specific binding was obtained by subtracting unspecific binding to naked biosensors and a zero analyte concentration made of binding assay buffer (double referencing). Kinetic parameters of koff were measured using a global fitting according to 1:1 Langmuir binding isotherm equation.

| Compound | binding mode to DLL3 ([1]; peptides at 20, 4 and 0.8 μM, fit to 1:1 Langmuir binding model) | affinity ([1]; wider dose-response 10×KD to 0.1×KD) | IC50 [2] [µM] | Kd [3] [µM] | koff [3] [s⁻¹] | kon [3] [M⁻¹ s⁻¹] | efficiency in competing the binding of the AF647-labelled PepSP1146 [2] | RT [4] |
| --- | --- | --- | --- | --- | --- | --- | --- | --- |
| CC(C)[C@H](NC(=O)[C@@H](NC(=O)[C@H](CCC(=O)O)NC(=O)[C@H](C)N)[C@@H](C)O)C(=O)N[C@@H](CCC(=O)O)C(=O)N[C@@H](Cc1ccccc1)C(=O)N[C@@H](Cc1c[nH]c2ccccc12)C(=O)NCC(=O)N[C@H]1CSSC[C@@H](C(=O)N[C@@H](Cc2c[nH]c3ccccc23)C(=O)N[C@@H](Cc2c[nH]c3ccccc23)C(N)=O)NC(=O)[C@H]([C@@H](C)O)NC(=O)[C@H](CCC(=O)O)NC(=O)[C@H](CC(N)=O)NC(=O)CNC(=O)[C@H](Cc2c[nH]c3ccccc23)NC(=O)[C@H]([C@@H](C)O)NC(=O)CNC(=O)[C@H]([C@@H](C)O)NC1=O [PepSP1146] | dose-response saturable binding | double-digit nM range | 0.076 | – | – | – | – | – |
| CC(C)[C@H](NC(=O)[C@@H](NC(=O)[C@H](CCC(=O)O)NC(=O)[C@H](C)N)[C@@H](C)O)C(=O)N[C@@H](CCC(=O)O)C(=O)N[C@@H](Cc1ccccc1)C(=O)N[C@@H](Cc1c[nH]c2ccccc12)C(=O)NCC(=O)N[C@H]1CSSC[C@@H](C(=O)N[C@@H](Cc2c[nH]c3ccccc23)C(=O)N[C@@H](Cc2c[nH]c3ccccc23)C(=O)NCCCOCCOCCOCCCNC(=O)CCC(=O)N[C@@H](CCCCn2cc(COCCOCCOCCOCCOCCOCc3cn(CCCC[C@H](NC(=O)CCC(=O)NCCCOCCOCCOCCCNC(=O)[C@H](Cc4c[nH]c5ccccc45)NC(=O)[C@H](Cc4c[nH]c5ccccc45)NC(=O)[C@@H]4CSSC[C@H](NC(=O)CNC(=O)[C@H](Cc5c[nH]c6ccccc56)NC(=O)[C@H](Cc5ccccc5)NC(=O)[C@H](CCC(=O)O)NC(=O)[C@@H](NC(=O)[C@@H](NC(=O)[C@H](CCC(=O)O)NC(=O)[C@H](C)N)[C@@H](C)O)C(C)C)C(=O)N[C@@H]([C@@H](C)O)C(=O)NCC(=O)N[C@@H]([C@@H](C)O)C(=O)N[C@@H](Cc5c[nH]c6ccccc56)C(=O)NCC(=O)N[C@@H](CC(N)=O)C(=O)N[C@@H](CCC(=O)O)C(=O)N[C@@H]([C@@H](C)O)C(=O)N4)C(N)=O)nn3)nn2)C(N)=O)NC(=O)[C@H]([C@@H](C)O)NC(=O)[C@H](CCC(=O)O)NC(=O)[C@H](CC(N)=O)NC(=O)CNC(=O)[C@H](Cc2c[nH]c3ccccc23)NC(=O)[C@H]([C@@H](C)O)NC(=O)CNC(=O)[C@H]([C@@H](C)O)NC1=O [PepSP1270] | – | – | 0.0153 | 0.003 | 0.00024 | 74300 | higher efficiency | – |
| CC(C)[C@H](NC(=O)[C@@H](NC(=O)[C@H](CCC(=O)O)NC(=O)[C@H](C)N)[C@@H](C)O)C(=O)N[C@@H](CCC(=O)O)C(=O)N[C@@H](Cc1ccccc1)C(=O)N[C@@H](Cc1c[nH]c2ccccc12)C(=O)NCC(=O)N[C@H]1CSSC[C@@H](C(=O)N[C@@H](Cc2c[nH]c3ccccc23)C(=O)N[C@@H](Cc2c[nH]c3ccccc23)C(=O)NCCCOCCOCCOCCCNC(=O)CCC(=O)N[C@@H](CCCCn2cc(COCCOCCOCCOCCOCCOCCOCCOCCOCCOCCOCCOCCOCCOCc3cn(CCCC[C@H](NC(=O)CCC(=O)NCCCOCCOCCOCCCNC(=O)[C@H](Cc4c[nH]c5ccccc45)NC(=O)[C@H](Cc4c[nH]c5ccccc45)NC(=O)[C@@H]4CSSC[C@H](NC(=O)CNC(=O)[C@H](Cc5c[nH]c6ccccc56)NC(=O)[C@H](Cc5ccccc5)NC(=O)[C@H](CCC(=O)O)NC(=O)[C@@H](NC(=O)[C@@H](NC(=O)[C@H](CCC(=O)O)NC(=O)[C@H](C)N)[C@@H](C)O)C(C)C)C(=O)N[C@@H]([C@@H](C)O)C(=O)NCC(=O)N[C@@H]([C@@H](C)O)C(=O)N[C@@H](Cc5c[nH]c6ccccc56)C(=O)NCC(=O)N[C@@H](CC(N)=O)C(=O)N[C@@H](CCC(=O)O)C(=O)N[C@@H]([C@@H](C)O)C(=O)N4)C(N)=O)nn3)nn2)C(N)=O)NC(=O)[C@H]([C@@H](C)O)NC(=O)[C@H](CCC(=O)O)NC(=O)[C@H](CC(N)=O)NC(=O)CNC(=O)[C@H](Cc2c[nH]c3ccccc23)NC(=O)[C@H]([C@@H](C)O)NC(=O)CNC(=O)[C@H]([C@@H](C)O)NC1=O [PepSP1271] | – | – | 0.01 | 0.003 | 0.00028 | 104000 | higher efficiency | – |
| CCOCCOCCOCCOCc1cn(CCCC[C@@H]2CC(=O)C(CC(=O)NCCCOCCOCCOCCCNC(=O)[C@@H](Cc3c[nH]c4ccccc34)NC(=O)[C@@H](CC3=CCc4ccccc43)NC(=O)[C@H]3CSSC[C@@H](NC(=O)CNC(=O)[C@@H](Cc4c[nH]c5ccccc45)NC(=O)[C@@H](Cc4ccccc4)NC(=O)[C@@H](CCC(=O)O)NC(=O)[C@H](NC(=O)[C@H](NC(=O)[C@@H](CCC(=O)O)NC(=O)C(C)C)[C@H](C)O)C(C)C)C(=O)N[C@H]([C@H](C)O)C(=O)NCC(=O)C(C)[C@H]([C@H](C)O)C(=O)N[C@H](Cc4c[nH]c5ccccc45)C(=O)NCC(=O)N[C@H](CC(N)=O)C(=O)N[C@H](CCC(=O)O)C(=O)N[C@H]([C@H](C)O)C(=O)N3)NC2=O)nn1 (stereo partly drawn) [PepSP1272] (Isobutyryl-[dE][dT][dV][dE][dF][dW]G[dC][dT][X4][dW]G[dN][dE][dT][dC][X5][dW]-X6; disulfide 8-16) | – | – | – | – | 5.5e-05 | 90000 | higher efficiency | – |
| CC(=O)N[C@@H](C)C(=O)N[C@@H](CCC(=O)O)C(=O)N[C@H](C(=O)N[C@H](C(=O)N[C@@H](CCC(=O)O)C(=O)N[C@@H](Cc1ccccc1)C(=O)N[C@@H](Cc1c[nH]c2ccccc12)C(=O)NCC(=O)N[C@H]1CSSC[C@@H](C(=O)N[C@@H](Cc2c[nH]c3ccccc23)C(=O)N[C@@H](Cc2c[nH]c3ccccc23)C(=O)NCC(=O)NCC(=O)NCCCOCCOCCOCCCNC(=O)CCC(=O)N[C@@H](CCCCN)C(N)=O)NC(=O)[C@H]([C@@H](C)O)NC(=O)[C@H](CCC(=O)O)NC(=O)[C@H](CC(N)=O)NC(=O)CNC(=O)[C@H](Cc2c[nH]c3ccccc23)NC(=O)[C@H]([C@@H](C)O)NC(=O)CNC(=O)[C@H]([C@@H](C)O)NC1=O)C(C)C)[C@@H](C)O [PepSP1321] (Ac-AETVEFWGCTGTWGNETCWWGG-X11; disulfide 9-18) | – | – | – | – | – | – | – | 369 |
| AETVEFWSCVVYGDNWTCSS-CONH2 (AETVEFWSCVVYGDNWTCSS-NH2; disulfide 9-18 (inferred)) [PepSP1172] | – | – | – | – | – | – | most efficient binder | – |
